Laboratory results: patent US20240150377A1, “MODULATORS OF CYSTIC FIBROSIS TRANSMEMBRANE CONDUCTANCE REGULATOR” (VERTEX PHARMACEUTICALS INCORPORATED, priority 2020, published 2024)
Where two headings read alike, the source gives them in different places.

Target: T1, CFTR (Homo sapiens, UniProt P13569, DEL508-508)
T1 construct: endogenous in cells; host or cells: primary human bronchial epithelial cells from CF subjects (F508del/MF-HBE), differentiated at air-liquid interface
Test: HBE assay: Ussing chamber assay of CFTR-mediated short-circuit currents
Type: cell-based
Details: for EC50: read-out: HBE EC50; for Emax: read-out: HBE Max Activity (%); for activation at 10 µM: read-out: HBE Activity at 10 μM (%)
In short: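 CFTR-mediated Isc (μA/cm²) equals the peak response to apical 20 μM forskolin minus the residual after a 20 μM each BPO/GlyH-101/CFTR inhibitor 172 cocktail, recorded in Ussing chambers at Vhold 0 mV, 37 °C, pH 7.4, with 30 μM apical amiloride. Cells were F508del/MF HBE cultures preincubated 18-24 h with corrector (concentration range or 10 μM) plus 1 μM ivacaftor in 20% human serum.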

T1 sequence (P13569 with tags, fused parts or gaps DEL508-508): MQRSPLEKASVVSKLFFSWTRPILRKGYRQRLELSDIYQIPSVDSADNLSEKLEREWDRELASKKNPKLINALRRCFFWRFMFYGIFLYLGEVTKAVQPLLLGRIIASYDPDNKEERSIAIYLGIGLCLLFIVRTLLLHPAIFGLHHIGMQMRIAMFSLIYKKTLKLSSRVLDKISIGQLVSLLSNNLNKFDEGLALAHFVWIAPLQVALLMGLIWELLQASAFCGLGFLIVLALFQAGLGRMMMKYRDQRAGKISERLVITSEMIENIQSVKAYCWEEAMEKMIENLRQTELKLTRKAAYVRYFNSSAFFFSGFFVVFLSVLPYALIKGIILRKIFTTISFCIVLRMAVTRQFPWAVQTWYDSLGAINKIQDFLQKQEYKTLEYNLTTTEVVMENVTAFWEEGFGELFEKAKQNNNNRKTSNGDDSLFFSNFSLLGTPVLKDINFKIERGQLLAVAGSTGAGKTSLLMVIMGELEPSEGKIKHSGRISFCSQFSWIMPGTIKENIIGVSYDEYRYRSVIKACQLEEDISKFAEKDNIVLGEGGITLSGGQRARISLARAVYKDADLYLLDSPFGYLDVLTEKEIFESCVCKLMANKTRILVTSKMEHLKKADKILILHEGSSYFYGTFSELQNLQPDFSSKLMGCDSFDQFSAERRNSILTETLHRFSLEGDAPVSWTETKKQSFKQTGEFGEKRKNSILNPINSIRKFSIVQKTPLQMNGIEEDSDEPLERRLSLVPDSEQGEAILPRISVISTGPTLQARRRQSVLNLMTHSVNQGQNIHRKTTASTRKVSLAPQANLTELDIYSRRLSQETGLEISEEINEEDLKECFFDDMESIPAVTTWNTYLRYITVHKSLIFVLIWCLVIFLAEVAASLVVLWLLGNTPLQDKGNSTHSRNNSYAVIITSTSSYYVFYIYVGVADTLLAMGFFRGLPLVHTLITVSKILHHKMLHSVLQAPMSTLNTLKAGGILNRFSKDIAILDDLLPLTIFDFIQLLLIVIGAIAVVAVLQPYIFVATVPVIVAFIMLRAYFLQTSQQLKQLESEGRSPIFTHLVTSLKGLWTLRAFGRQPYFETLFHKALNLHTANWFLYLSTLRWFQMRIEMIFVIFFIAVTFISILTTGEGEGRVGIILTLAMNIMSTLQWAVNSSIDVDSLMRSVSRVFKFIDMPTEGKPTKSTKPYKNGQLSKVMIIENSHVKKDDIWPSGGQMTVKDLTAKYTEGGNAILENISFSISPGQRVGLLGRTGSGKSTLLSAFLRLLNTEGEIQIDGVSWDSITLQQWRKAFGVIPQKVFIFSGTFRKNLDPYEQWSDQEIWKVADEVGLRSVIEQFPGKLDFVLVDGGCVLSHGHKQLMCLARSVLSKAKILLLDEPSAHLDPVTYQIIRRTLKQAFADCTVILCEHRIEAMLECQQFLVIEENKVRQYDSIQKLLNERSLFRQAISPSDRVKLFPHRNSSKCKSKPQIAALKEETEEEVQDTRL

| SMILES | EC50 (Table 12) [nM] | Emax (Table 12) [%] | other results |
| --- | --- | --- | --- |
| Cc1cccc(C)c1-c1cc2nc(n1)NS(=O)(=O)c1cccc(c1)C(=O)N(Cc1cccc(N(CCOC(C)C)C(C)C)n1)[C@H](CC(C)(C)C)CO2 [Compound 236] |  |  | EC50 (Table 13): 1000 to 3000 nM; Emax (Table 13): > 60% |
| Cc1cccc(C)c1-c1cc2nc(n1)NS(=O)(=O)c1cccc(c1)C(=O)N(Cc1ccc(C3=CCCCC3)nn1)[C@H](CC(C)(C)C)CO2 [Compound 237] |  |  | activation at 10 µM (Table 12): > 600% |
| Cc1cccc(C)c1-c1cc2nc(n1)NS(=O)(=O)c1cccc(c1)C(=O)N(Cc1ccc(N3CCC(C)(C)C3)nn1)[C@H](CC(C)(C)C)CO2 [Compound 238] | < 1000 | 30 to 60 |  |
| Cc1cccc(C)c1-c1cc2nc(n1)NS(=O)(=O)c1cccc(c1)C(=O)N(Cc1ncc(OC(C)C)cn1)[C@H](CC(C)C)CO2 [Compound 239] | 1000 to 3000 | > 60 |  |
| Cc1cccc(C)c1-c1cc2nc(n1)NS(=O)(=O)c1cccc(c1)C(=O)N(Cc1cnc(C3CCOCC3)cn1)[C@H](CC(C)C)CO2 [Compound 240] | < 1000 | > 60 |  |
| Cc1cccc(C(C)C)c1-c1cc2nc(n1)NS(=O)(=O)c1cccc(c1)C(=O)N(Cc1ncc(OC(C)C)cn1)[C@H](CC(C)C)CO2 [Compound 241] |  |  | activation at 10 µM (Table 12): > 600% |
| Cc1cccc(C(C)C)c1-c1cc2nc(n1)NS(=O)(=O)c1cccc(c1)C(=O)N(Cc1cnc(C3CCOCC3)cn1)[C@H](CC(C)C)CO2 [Compound 242] |  |  | activation at 10 µM (Table 12): > 600% |
| Cc1cccc(C)c1-c1cc2nc(n1)NS(=O)(=O)c1cccc(c1)C(=O)N(Cc1cncc(N(C)C(C(=O)O)C(C)C)n1)[C@H](CC(C)(C)C)CO2 (stereo partly drawn) [Compound 243] |  |  | activation at 10 µM (Table 12): > 600% |
| COc1cc(Br)cnc1CN1C(=O)c2cccc(c2)S(=O)(=O)Nc2nc(cc(-c3c(C)cccc3C)n2)OC[C@H]1CC(C)(C)C [Compound 244] |  |  | activation at 10 µM (Table 13): > 600% |
| Cc1cccc(C)c1-c1cc2nc(n1)NS(=O)(=O)c1cccc(c1)C(=O)N(Cc1ccc(C(=O)N3CCOCC3)cn1)[C@H](CC(C)(C)C)CO2 [Compound 245] |  |  | activation at 10 µM (Table 13): > 600% |
| Cc1cccc(C)c1-c1cc2nc(n1)NS(=O)(=O)c1cccc(c1)C(=O)N(Cc1ccc(C(=O)N3CCC(C)(C)C3)cn1)[C@H](CC(C)(C)C)CO2 [Compound 246] |  |  | activation at 10 µM (Table 13): > 600% |
| Cc1cccc(C)c1-c1cc2nc(n1)NS(=O)(=O)c1cccc(c1)C(=O)N(Cc1ccc(C(=O)O)cn1)[C@H](CC(C)(C)C)CO2 [Compound 247] |  |  | activation at 10 µM (Table 13): 30 to 60% |
| COC(=O)c1ccc(CN2C(=O)c3cccc(c3)S(=O)(=O)Nc3nc(cc(-c4c(C)cccc4C)n3)OC[C@H]2CC(C)(C)C)nc1 [Compound 248] |  |  | activation at 10 µM (Table 13): > 600% |
| Cc1cccc(C)c1-c1cc2nc(n1)NS(=O)(=O)c1cccc(c1)C(=O)N(Cc1ccc(N3CCC(C(=O)N(C)C)CC3)cn1)[C@H](CC(C)(C)C)CO2 [Compound 249] |  |  | activation at 10 µM (Table 13): > 600% |
| Cc1cccc(C)c1-c1cc2nc(n1)NS(=O)(=O)c1cccc(c1)C(=O)N(Cc1ccc(C#CC(C)(C)CO)cn1)[C@H](CC(C)(C)C)CO2 [Compound 250] | < 1000 | > 60 |  |
| Cc1cccc(C)c1-c1cc2nc(n1)NS(=O)(=O)c1cccc(c1)C(=O)N(Cc1ccc(N3CCC(C(=O)O)CC3)cn1)[C@H](CC(C)(C)C)CO2 [Compound 251] |  |  | activation at 10 µM (Table 13): 30 to 60% |
| Cc1cccc(C)c1-c1cc2nc(n1)NS(=O)(=O)c1cccc(c1)C(=O)N(Cc1ccc(C3CC3)cn1)[C@H](CC(C)(C)C)CO2 [Compound 252] |  |  | EC50 (Table 13): < 1000 nM; Emax (Table 13): > 60% |
| CC(=O)N1CCN(c2cccc(CN3C(=O)c4cccc(c4)S(=O)(=O)Nc4nc(cc(-c5c(C)cccc5C)n4)OC[C@H]3CC(C)(C)C)n2)CC1 [Compound 253] |  |  | activation at 10 µM (Table 13): > 600% |
| Cc1cccc(C)c1-c1cc2nc(n1)NS(=O)(=O)c1cccc(c1)C(=O)N(Cc1ccc(N3CCC(C(C)(C)O)CC3)cn1)[C@H](CC(C)(C)C)CO2 [Compound 254] |  |  | activation at 10 µM (Table 13): > 600% |
| COC(=O)C1CCN(c2ccc(CN3C(=O)c4cccc(c4)S(=O)(=O)Nc4nc(cc(-c5c(C)cccc5C)n4)OC[C@H]3CC(C)(C)C)nc2)CC1 [Compound 255] |  |  | activation at 10 µM (Table 13): > 600% |
| Cc1cccc(C)c1-c1cc2nc(n1)NS(=O)(=O)c1cccc(c1)C(=O)N(C(=O)c1ccccc1)[C@H](CC(C)(C)C)CO2 [Compound 256] |  |  | activation at 10 µM (Table 13): > 600% |
| Cc1cccc(C)c1-c1cc2nc(n1)NS(=O)(=O)c1cccc(c1)C(=O)N(Cc1ccc(N3CCCC3=O)cn1)[C@H](CC(C)(C)C)CO2 [Compound 257] |  |  | activation at 10 µM (Table 13): > 600% |
| Cc1cccc(C)c1-c1cc2nc(n1)NS(=O)(=O)c1cccc(c1)C(=O)N(Cc1ccc(N3CCC(C(C)(C)C)CC3)cn1)[C@H](CC(C)(C)C)CO2 [Compound 258] |  |  | activation at 10 µM (Table 13): > 600% |
| CCC(=O)CN1C(=O)c2cccc(c2)S(=O)(=O)Nc2nc(cc(-c3c(C)cccc3C)n2)OC[C@H]1CC(C)(C)C [Compound 259] |  |  | activation at 10 µM (Table 13): > 600% |

| SMILES | EC50 (Table 12) [nM] | Emax (Table 12) [%] | other results |
| --- | --- | --- | --- |
| CCC(C)C(CO)N(C)c1cncc(CN2C(=O)c3cccc(c3)S(=O)(=O)Nc3nc(cc(-c4c(C)cccc4C)n3)OC[C@H]2CC(C)(C)C)n1 (stereo partly drawn) [Compound 260] | < 1000 | > 60 |  |
| Cc1cccc(C)c1-c1cc2nc(n1)NS(=O)(=O)c1cccc(c1)C(=O)N(Cc1ccc(C3CCOC3)cn1)[C@H](CC(C)(C)C)CO2 (stereo partly drawn) [Compound 261] | < 1000 | > 60 |  |
| Cc1cccc(C)c1-c1cc2nc(n1)NS(=O)(=O)c1cccc(c1)C(=O)N(Cc1cncc(N(C)CCOC(C)C)n1)[C@H](CC(C)(C)C)CO2 [Compound 262] | < 1000 | > 60 |  |
| Cc1cccc(C)c1-c1cc2nc(n1)NS(=O)(=O)c1cccc(c1)C(=O)N(Cc1cncc(N3CC(C(=O)O)C(C(C)C)C3)n1)[C@H](CC(C)(C)C)CO2 (stereo partly drawn) [Compound 263] |  |  | activation at 10 µM (Table 12): 30 to 60% |
| Cc1cccc(C)c1-c1cc2nc(n1)NS(=O)(=O)c1cccc(c1)C(=O)N(Cc1nc(C(C)C)c[nH]1)[C@H](CC(C)(C)C)CO2 [Compound 264] | < 1000 | > 60 | activation at 10 µM (Table 12): < 30% |
| Cc1cccc(C)c1-c1cc2nc(n1)NS(=O)(=O)c1cccc(c1)C(=O)N(Cc1nc(C(C)C)cn1COCC[Si](C)(C)C)[C@H](CC(C)(C)C)CO2 [Compound 265] |  |  | activation at 10 µM (Table 12): > 600% |
| Cc1cccc(C)c1-c1cc2nc(n1)NS(=O)(=O)c1cccc(c1)C(=O)N(Cc1ncc(C(C)C)n1C)[C@H](CC(C)(C)C)CO2 [Compound 266] |  |  | activation at 10 µM (Table 12): > 600% |
| Cc1cccc(C)c1-c1cc2nc(n1)NS(=O)(=O)c1cccc(c1)C(=O)N(Cc1nc(C(C)C)cn1C)[C@H](CC(C)(C)C)CO2 [Compound 267] | < 1000 | > 60 |  |
| Cc1cccc(C)c1-c1cc2nc(n1)NS(=O)(=O)c1cccc(c1)C(=O)N(Cc1nc3ccccc3n1C)[C@H](CC(C)(C)C)CO2 [Compound 268] | < 1000 | > 60 |  |
| Cc1cccc(C)c1-c1cc2nc(n1)NS(=O)(=O)c1cccc(c1)C(=O)N(Cc1nc(C)c(C)n1C)[C@H](CC(C)(C)C)CO2 [Compound 269] |  |  | activation at 10 µM (Table 12): > 600% |
| Cc1cccc(C)c1-c1cc2nc(n1)NS(=O)(=O)c1cccc(c1)C(=O)N(Cc1cnc(OC(C)C)nc1)[C@H](CC(C)(C)C)CO2 [Compound 270] | < 1000 | > 60 |  |
| Cc1cccc(C)c1-c1cc2nc(n1)NS(=O)(=O)c1cccc(c1)C(=O)N(Cc1cnc(C3CCCCC3)nc1)[C@H](CC(C)(C)C)CO2 [Compound 271] | < 1000 | > 60 |  |
| Cc1cccc(C)c1-c1cc2nc(n1)NS(=O)(=O)c1cccc(c1)C(=O)N(Cc1cnc(N3CCC(C)(C)C3)nc1)[C@H](CC(C)(C)C)CO2 [Compound 272] | < 1000 | > 60 |  |
| COC[C@@H]1CCCN1c1cncc(CN2C(=O)c3cccc(c3)S(=O)(=O)Nc3nc(cc(-c4c(C)cccc4C)n3)OC[C@H]2CC(C)(C)C)n1 [Compound 273] | < 1000 | > 60 |  |
| COC[C@H]1CCCN1c1cncc(CN2C(=O)c3cccc(c3)S(=O)(=O)Nc3nc(cc(-c4c(C)cccc4C)n3)OC[C@H]2CC(C)(C)C)n1 [Compound 274] | < 1000 | > 60 |  |
| COC[C@@H]1CCCN1c1cccc(CN2C(=O)c3cccc(c3)S(=O)(=O)Nc3nc(cc(-c4c(C)cccc4C)n3)OC[C@H]2CC(C)(C)C)n1 [Compound 275] | < 1000 | > 60 |  |
| COC[C@H]1CCCN1c1cccc(CN2C(=O)c3cccc(c3)S(=O)(=O)Nc3nc(cc(-c4c(C)cccc4C)n3)OC[C@H]2CC(C)(C)C)n1 [Compound 276] | < 1000 | > 60 |  |
| Cc1cccc(C)c1-c1cc(O)nc(NS(=O)(=O)c2cccc(C(=O)N(Cc3cccc(N4CCC[C@]4(C)C(=O)O)n3)[C@@H](C)CC(C)(C)C)c2)n1 [Compound 277] |  |  | activation at 10 µM (Table 12): > 600% |
| Cc1cccc(C)c1-c1cc2nc(n1)NS(=O)(=O)c1cccc(c1)C(=O)N(Cc1cccc(N3CCC[C@@]3(C)C(=O)O)n1)[C@H](CC(C)(C)C)CO2 [Compound 278] |  |  | activation at 10 µM (Table 12): > 600% |
| Cc1cccc(C)c1-c1cc2nc(n1)NS(=O)(=O)c1cccc(c1)C(=O)N(Cc1cccc(N3CCC[C@H]3CO)n1)[C@H](CC(C)(C)C)CO2 [Compound 279] | < 1000 | > 60 |  |
| Cc1cccc(C)c1-c1cc2nc(n1)NS(=O)(=O)c1cccc(c1)C(=O)N(Cc1cccc(N3CCC[C@@H]3CO)n1)[C@H](CC(C)(C)C)CO2 [Compound 280] | < 1000 | > 60 |  |
| Cc1cccc(C)c1-c1cc2nc(n1)NS(=O)(=O)c1cccc(c1)C(=O)N(Cc1cncc(N(C)CC(C)(C)C)c1)[C@H](CC(C)(C)C)CO2 [Compound 281] |  |  | activation at 10 µM (Table 12): > 600% |
| Cc1cccc(C)c1-c1cc2nc(n1)NS(=O)(=O)c1cccc(c1)C(=O)N(Cc1cncc(N3CCCC3(C)C)c1)[C@H](CC(C)(C)C)CO2 [Compound 282] |  |  | activation at 10 µM (Table 12): > 600% |
